Eleven compounds from US20200060276A1, “THIAZOLE COMPOUND AND HERBICIDE” (OAT Agrio Co., Ltd., priority 2017, published 2020) can be followed below.

What all share (type): in vivo
The test system of assay [1] is Echinochloa crus-galli (L.) P. Beauv. var. formosensis Ohwi. Description: Test for Herbicidal Effect in Flooding Treatment (#1), ECHDG. Conditions: flooding treatment at seeding, dose 2 kg/ha, visual observation on day 21. The method, boiled down:
(§1)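 Sieved soil in cups was flooded and left 24 h before weed seeds were sown. Compounds in acetone, diluted with Tween 80-containing water, were dropped over the whole surface at 2 kg/ha. After 21 days in a glasshouse, growth inhibition was scored visually from 0 (<10%) to 5 (≥90% or complete withering).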

The test system of another assay is Scirpus juncoides. The assay can be described thus: Test for Herbicidal Effect in Flooding Treatment (#1), SCIJU. Conditions: flooding treatment at seeding, dose 2 kg/ha, visual observation on day 21. The method, boiled down:
as §1

The subject of assay [2] is Echinochloa crus-galli (L.) P. Beauv. var. formosensis Ohwi. The assay can be described thus: Test for Herbicidal Effect in Flooding Treatment (#2), ECHDG at 2-2.5 leaf stage. Conditions: flooding treatment at 2-2.5 leaf stage, dose 0.2 kg/ha, visual observation on day 21. Put shortly:
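Flooded muddy soil was seeded with the weed, and at 2–2.5 leaf stage compound in acetone/Tween 80 water was dropped on the water surface at 0.2 kg/ha. Plants were kept in a glasshouse and scored visually on day 21 from 0 (<10% growth inhibition) to 5 (≥90% or complete withering).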

The test system of a further assay is Cyperus microiria. The assay can be described thus: Test for Herbicidal Effect in Flooding Treatment (#1), CYMIC. Conditions: flooding treatment at seeding, dose 2 kg/ha, visual observation on day 21. As to the method:
(#1) Test for Herbicidal Effect in Flooding Treatment: Styrol cups each having an opening diameter of 8 cm (about 52 cm^2) were respectively filled with soil (45 ml) which had been passed through a sieve (2 mm). Water (about 115 ml) was mixed with the soil such that the soil was flooded. After the soil stood still for 24 hours, Monochoria vaginalis, Echinochloa crus-galli (L.) P. Beauv. var. formosensis Ohwi, Cyperus difformis (umbrella sedge), and Scirpus juncoides were seeded. Each of the compounds of the present invention was dissolved in acetone, and the obtained product was then diluted with water containing Tween 80®. Each of the resultant chemical solutions was dropped on the entire surface of an associated one of treatment sections, so that each section was treated with 1 ml of the respective chemical solution (a dose of 2 kg/ha). After the treatment, the plants were grown in a glasshouse. On day 21, a survey was conducted on the herbicidal activity by visual observation, and evaluation was made according to the following criteria. 0: Growth inhibition effect is less than 10%. 1: Growth inhibition effect is equal to or greater than 10%, and less than 30%. 2; Growth inhibition effect is equal to or greater than 30%, and less than 50%. 3: Growth inhibition effect equal to or greater than 50%, and less than 70%. 4: Growth inhibition effect is equal to or greater than 70%, and less than 90%. 5: Growth inhibition effect is equal to or greater than 90%, or complete withering is achieved. ECHDG=Echinochloa crus-galli (L.) P. Beauv. var. formosensis Ohwi, MONVA=Monochoria vaginalis, SCIJU=Scirpus juncoides, CYMIC=Cyperus microiria.

As for `O=S(=O)(Cc1cccc(OC(F)F)c1)c1ncc(Cl)s1` [Compound 1C-84], in assay [1], the “ECHDG #1 herbicidal effect (growth inhibition grade)” value is listed as 5 (Growth inhibition effect is equal to or greater than 90%, or complete withering is achieved). For the same compound, in the assay on Scirpus juncoides, the “SCIJU #1 herbicidal effect (growth inhibition grade)” value was 5 (Growth inhibition effect is equal to or greater than 90%, or complete withering is achieved). Also, the “ECHDG (2-2.5L) #2 herbicidal effect (growth inhibition grade)” value in assay [2] was 3 (Growth inhibition effect equal to or greater than 50%, and less than 70%). For the same compound, the “CYMIC #1 herbicidal effect (growth inhibition grade)” value with Cyperus microiria was 5 (Growth inhibition effect is equal to or greater than 90%, or complete withering is achieved).

For `O=S(=O)(Cc1cccc(OC(F)(F)F)c1)c1ncc(Cl)s1` [Compound 1C-85, 5-chloro-2-{[3-(trifluoromethoxy)phenyl][methanesulfonyl]}-1,3-thiazole], the “ECHDG #1 herbicidal effect (growth inhibition grade)” value in assay [1] is recorded as 5 (Growth inhibition effect is equal to or greater than 90%, or complete withering is achieved). Also, the “SCIJU #1 herbicidal effect (growth inhibition grade)” value with Scirpus juncoides was 5 (Growth inhibition effect is equal to or greater than 90%, or complete withering is achieved). Moreover, in assay [2], the “ECHDG (2-2.5L) #2 herbicidal effect (growth inhibition grade)” value is 1 (Growth inhibition effect is equal to or greater than 10%, and less than 30%). Besides, in the assay with Cyperus microiria, the “CYMIC #1 herbicidal effect (growth inhibition grade)” value is recorded as 5 (Growth inhibition effect is equal to or greater than 90%, or complete withering is achieved).

Regarding `COc1ccc(CS(=O)(=O)c2ncc(Cl)s2)cc1` [Compound 1C-87], the “ECHDG #1 herbicidal effect (growth inhibition grade)” value in assay [1] is on record as 5 (Growth inhibition effect is equal to or greater than 90%, or complete withering is achieved). The “SCIJU #1 herbicidal effect (growth inhibition grade)” value in the assay with Scirpus juncoides is given as 5 (Growth inhibition effect is equal to or greater than 90%, or complete withering is achieved). In addition, the “ECHDG (2-2.5L) #2 herbicidal effect (growth inhibition grade)” value in assay [2] was 1 (Growth inhibition effect is equal to or greater than 10%, and less than 30%). The “CYMIC #1 herbicidal effect (growth inhibition grade)” value in the assay with Cyperus microiria is listed as 5 (Growth inhibition effect is equal to or greater than 90%, or complete withering is achieved).

For the compound `COc1ccc(CS(=O)(=O)c2ncc(Cl)s2)cc1Cl` [Compound 1C-89], the “ECHDG #1 herbicidal effect (growth inhibition grade)” value in assay [1] is reported as 5 (Growth inhibition effect is equal to or greater than 90%, or complete withering is achieved). For the same compound, in the assay on Scirpus juncoides, the “SCIJU #1 herbicidal effect (growth inhibition grade)” value is 5 (Growth inhibition effect is equal to or greater than 90%, or complete withering is achieved). Besides, the “ECHDG (2-2.5L) #2 herbicidal effect (growth inhibition grade)” value in assay [2] is 3 (Growth inhibition effect equal to or greater than 50%, and less than 70%). Further, the “CYMIC #1 herbicidal effect (growth inhibition grade)” value in the assay on Cyperus microiria is 5 (Growth inhibition effect is equal to or greater than 90%, or complete withering is achieved).

For `COc1cc(F)c(CS(=O)(=O)c2ncc(Cl)s2)c(F)c1` [Compound 1C-90], the “ECHDG #1 herbicidal effect (growth inhibition grade)” value in assay [1] is reported as 5 (Growth inhibition effect is equal to or greater than 90%, or complete withering is achieved). In the assay on Scirpus juncoides, the “SCIJU #1 herbicidal effect (growth inhibition grade)” value is 5 (Growth inhibition effect is equal to or greater than 90%, or complete withering is achieved). The “ECHDG (2-2.5L) #2 herbicidal effect (growth inhibition grade)” value in assay [2] is recorded as 5 (Growth inhibition effect is equal to or greater than 90%, or complete withering is achieved). Moreover, the “CYMIC #1 herbicidal effect (growth inhibition grade)” value with Cyperus microiria was 5 (Growth inhibition effect is equal to or greater than 90%, or complete withering is achieved).

For `CCOc1ccc(CS(=O)(=O)c2ncc(Cl)s2)c(Cl)c1` [Compound 1C-92], the “ECHDG #1 herbicidal effect (growth inhibition grade)” value in assay [1] is recorded as 5 (Growth inhibition effect is equal to or greater than 90%, or complete withering is achieved). In addition, the “SCIJU #1 herbicidal effect (growth inhibition grade)” value in the assay with Scirpus juncoides was 5 (Growth inhibition effect is equal to or greater than 90%, or complete withering is achieved). Also, the “ECHDG (2-2.5L) #2 herbicidal effect (growth inhibition grade)” value in assay [2] is recorded as 5 (Growth inhibition effect is equal to or greater than 90%, or complete withering is achieved). Moreover, the “CYMIC #1 herbicidal effect (growth inhibition grade)” value in the assay with Cyperus microiria was 5 (Growth inhibition effect is equal to or greater than 90%, or complete withering is achieved).

As to `CCOc1ccc(CS(=O)(=O)c2ncc(Cl)s2)cc1F` [Compound 1C-95], the “ECHDG #1 herbicidal effect (growth inhibition grade)” value in assay [1] was 5 (Growth inhibition effect is equal to or greater than 90%, or complete withering is achieved). Also, the “SCIJU #1 herbicidal effect (growth inhibition grade)” value in the assay on Scirpus juncoides is given as 5 (Growth inhibition effect is equal to or greater than 90%, or complete withering is achieved). Further, the “ECHDG (2-2.5L) #2 herbicidal effect (growth inhibition grade)” value in assay [2] was 3 (Growth inhibition effect equal to or greater than 50%, and less than 70%). Moreover, the “CYMIC #1 herbicidal effect (growth inhibition grade)” value in the assay on Cyperus microiria is recorded as 5 (Growth inhibition effect is equal to or greater than 90%, or complete withering is achieved).

`CCOc1ccc(CS(=O)(=O)c2ncc(Cl)s2)cc1Cl` [Compound 1C-96]: the “ECHDG #1 herbicidal effect (growth inhibition grade)” value in assay [1] is 5 (Growth inhibition effect is equal to or greater than 90%, or complete withering is achieved). For the same compound, the “SCIJU #1 herbicidal effect (growth inhibition grade)” value in the assay with Scirpus juncoides is recorded as 5 (Growth inhibition effect is equal to or greater than 90%, or complete withering is achieved). The “ECHDG (2-2.5L) #2 herbicidal effect (growth inhibition grade)” value in assay [2] was 4 (Growth inhibition effect is equal to or greater than 70%, and less than 90%). In the assay on Cyperus microiria, the “CYMIC #1 herbicidal effect (growth inhibition grade)” value is 5 (Growth inhibition effect is equal to or greater than 90%, or complete withering is achieved).

With `CCOc1ccc(CS(=O)(=O)c2ncc(Cl)s2)cc1C` [Compound 1C-97], the “ECHDG #1 herbicidal effect (growth inhibition grade)” value in assay [1] was 5 (Growth inhibition effect is equal to or greater than 90%, or complete withering is achieved). Further, in the assay with Scirpus juncoides, the “SCIJU #1 herbicidal effect (growth inhibition grade)” value is 5 (Growth inhibition effect is equal to or greater than 90%, or complete withering is achieved). Also, the “ECHDG (2-2.5L) #2 herbicidal effect (growth inhibition grade)” value in assay [2] was 3 (Growth inhibition effect equal to or greater than 50%, and less than 70%). Further, the “CYMIC #1 herbicidal effect (growth inhibition grade)” value in the assay with Cyperus microiria is listed as 5 (Growth inhibition effect is equal to or greater than 90%, or complete withering is achieved).

`CCOc1cc(Cl)c(CS(=O)(=O)c2ncc(Cl)s2)cc1Cl` [Compound 1C-102]: the “ECHDG #1 herbicidal effect (growth inhibition grade)” value in assay [1] was 5 (Growth inhibition effect is equal to or greater than 90%, or complete withering is achieved). The “SCIJU #1 herbicidal effect (growth inhibition grade)” value in the assay on Scirpus juncoides is 5 (Growth inhibition effect is equal to or greater than 90%, or complete withering is achieved). Moreover, in assay [2], the “ECHDG (2-2.5L) #2 herbicidal effect (growth inhibition grade)” value was 4 (Growth inhibition effect is equal to or greater than 70%, and less than 90%). Besides, in the assay on Cyperus microiria, the “CYMIC #1 herbicidal effect (growth inhibition grade)” value is reported as 5 (Growth inhibition effect is equal to or greater than 90%, or complete withering is achieved).

As to `CCOc1cc(F)c(CS(=O)(=O)c2ncc(Cl)s2)c(F)c1` [Compound 1C-103], the “ECHDG #1 herbicidal effect (growth inhibition grade)” value in assay [1] is on record as 5 (Growth inhibition effect is equal to or greater than 90%, or complete withering is achieved). For the same compound, in the assay with Scirpus juncoides, the “SCIJU #1 herbicidal effect (growth inhibition grade)” value was 5 (Growth inhibition effect is equal to or greater than 90%, or complete withering is achieved). Besides, the “ECHDG (2-2.5L) #2 herbicidal effect (growth inhibition grade)” value in assay [2] is on record as 5 (Growth inhibition effect is equal to or greater than 90%, or complete withering is achieved). Further, in the assay on Cyperus microiria, the “CYMIC #1 herbicidal effect (growth inhibition grade)” value was 5 (Growth inhibition effect is equal to or greater than 90%, or complete withering is achieved).
